From patent US20210330611A1, “THERAPY FOR NEUROLOGICAL DISEASES/DISORDERS” (priority 2020, published 2021)
Structures can show the parent of a compound that is named as a salt. Where two headings read alike, the source gives them in different places.

How the values were obtained:
[1] = system: fibrin-induced microglia activation; test: Image-based assay of fibrin-induced microglia activation (HTS and dose response); format: cell-based, rat; conditions: for inhibition at 10 µM: read-out: Fibrin % inhibition
[2] = system: LPS-induced microglia activation; test: Image-based assay of LPS-induced microglia activation (HTS and dose response); format: cell-based, rat; conditions: for inhibition at 10 µM: read-out: LPS % inhibition
[3] = system: fibrin- and LPS-induced microglia activation; test: cells; format: cell-based, rat
primary rat microglia [4] = test: Cell toxicity (dead cells, size <150 μm2) in LPS assay
primary rat microglia [5] = test: Cell toxicity (dead cells, size <150 μm2) in coated fibrin (cFib) assay;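 also: share of dead cells sized under 150 µm2 at 10 µM in fibrin-stimulated microglia HTS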
[6] = Rattus norvegicus, Microglia, primary microglia HTS, fibrin stimulation, activation = cell size >800 μm2
[7] = Rattus norvegicus, Microglia, 48 h, primary microglia HTS, LPS stimulation, activation = cell size >800 μm2
[8] = quadrant by fibrin and LPS inhibition in HTS of 1907 compounds
[9] = primary microglia HTS, LPS stimulation, toxicity = cell size <150 μm2
[10] = primary microglia HTS, fibrin stimulation, toxicity = cell size <150 μm2
[11] = Rattus norvegicus, Microglia, primary microglia HTS, 10 μM, fibrin-stimulated, cell size >800 μm^2 as marker of activation
[12] = Rattus norvegicus, Microglia, primary microglia HTS, 10 μM, LPS-stimulated, cell size >800 μm^2 as marker of activation
[13] = HTS of 1907 compounds, quadrant by fibrin and LPS inhibition
[14] = primary microglia HTS, 10 μM, LPS assay, cell size <150 μm^2 as marker of toxicity
[15] = primary microglia HTS, 10 μM, fibrin assay, cell size <150 μm^2 as marker of toxicity
[16] = Rattus norvegicus, Microglia, primary microglia HTS, fibrin stimulation, increased cell size (>800 μm^2) as marker of activation
[17] = Rattus norvegicus, Microglia, 48 h, primary microglia HTS, LPS stimulation, increased cell size (>800 μm^2) as marker of activation
[18] = primary microglia HTS, LPS stimulation, decreased size (<150 μm^2) as marker of toxicity
[19] = primary microglia HTS, fibrin stimulation, decreased size (<150 μm^2) as marker of toxicity
[20] = Rattus norvegicus, Microglia, primary HTS, 10 μM, fibrin-stimulated primary microglia
[21] = Rattus norvegicus, Microglia, primary HTS, 10 μM, LPS-stimulated primary microglia
[22] = primary HTS, 10 μM, LPS assay, dead cells size <150 μm2
[23] = primary HTS, 10 μM, fibrin assay, dead cells size <150 μm2
[24] = primary microglia HTS, fibrin stimulation, increased cell size (>800 μm^2) as marker of activation
[25] = primary microglia HTS, LPS stimulation, increased cell size (>800 μm^2) as marker of activation

CC1=C(/C=C/C(C)=C/C=C/C(C)=C/C(=O)Nc2ccc(O)cc2)C(C)(C)CCC1 [Fenretinide]
inhibition at 10 µM [1, 6]: -42% | inhibition at 10 µM [2, 7]: 35% | Quadrant (FIG. 5b) [3, 8]: Q4 | LPS % cell toxicity (primary rat microglia [4]; [9]): 0% | Fibrin % cell toxicity (primary rat microglia [5]; [10]): 0%

COc1cc(O)c(C(=O)c2ccccc2)cc1S(=O)(=O)O [Sulisobenzone]
inhibition at 10 µM [1, 11]: -19% | inhibition at 10 µM [2, 12]: -2% | Quadrant (FIG. 5b) [3, 13]: Q4 | LPS % cell toxicity (primary rat microglia [4]; [14]): 0% | Fibrin % cell toxicity (primary rat microglia [5]; [15]): 0%

CC(NCCC(c1ccccc1)c1ccccc1)c1ccccc1 (stereo not shown) [Fendiline hydrochloride, reference compound]
IC50 ([1]; Rattus norvegicus, Microglia, Table 7, read-out: fib_IC50): 1750 nM | inhibition at 10 µM [1, 16]: -33% | inhibition at 10 µM [2, 17]: 10% | IC50 ([2]; Rattus norvegicus, Microglia, Table 7, read-out: LPS_IC50): 900 nM | Quadrant (FIG. 5b) ([3]; Table 2, screen at 10 μM): Q4 | Activity ([3]; Table 7, fib = fibrin, LPS, tox = toxicity): fib/LPS | Quadrant (FIG. 5b) [3, 8]: Q4 | LPS % cell toxicity (primary rat microglia [4]; [18]): 0% | Fibrin % cell toxicity (primary rat microglia [5]; [19]): 1%

CN(C)CCOC(c1ccc(Cl)cc1)c1ccccn1 (stereo not shown) [Carbinoxamine]
inhibition at 10 µM [1, 20]: 6% | inhibition at 10 µM [2, 21]: -3% | Quadrant (FIG. 5b) ([3]; primary HTS, 10 μM): Q4 | LPS % cell toxicity (primary rat microglia [4]; [22]): 0% | Fibrin % cell toxicity (primary rat microglia [5]; [23]): 0%

CC(C)NCC(O)COc1ccc(COCCOC(C)C)cc1 (stereo not shown) [Bisoprolol]
inhibition at 10 µM [1, 20]: 1% | inhibition at 10 µM [2, 21]: 13% | Quadrant (FIG. 5b) ([3]; primary HTS, 10 μM): Q4 | LPS % cell toxicity (primary rat microglia [4]; [22]): 0% | Fibrin % cell toxicity (primary rat microglia [5]; [23]): 0%

Clc1cc(Cl)c(OCC#CI)cc1Cl [Haloprogin]
inhibition at 10 µM [1, 16]: 78% | inhibition at 10 µM [2, 17]: 106% | Quadrant (FIG. 5b) [3, 8]: Q2 | LPS % cell toxicity (primary rat microglia [4]; [18]): 70% | Fibrin % cell toxicity (primary rat microglia [5]; [19]): 42%

C=C1c2cccc(O)c2C(=O)C2=C(O)[C@]3(O)C(=O)C(C(N)=O)=C(O)[C@@H](N(C)C)[C@@H]3[C@@H](O)[C@H]12 [Methacycline]
inhibition at 10 µM [1, 16]: -10% | inhibition at 10 µM [2, 17]: 11% | Quadrant (FIG. 5b) [3, 8]: Q4 | LPS % cell toxicity (primary rat microglia [4]; [18]): 0% | Fibrin % cell toxicity (primary rat microglia [5]; [19]): 0%

CC[N+](CC)(CC)CCOc1cccc(OCC[N+](CC)(CC)CC)c1OCC[N+](CC)(CC)CC [Gallamine Triethiodide]
inhibition at 10 µM [1, 6]: -11% | inhibition at 10 µM [2, 7]: 24% | Quadrant (FIG. 5b) [3, 8]: Q4 | LPS % cell toxicity (primary rat microglia [4]; [9]): 1% | Fibrin % cell toxicity (primary rat microglia [5]; [10]): 1%

CC(=O)OC[C@H]1O[C@@H]([S-])[C@H](OC(C)=O)[C@@H](OC(C)=O)[C@@H]1OC(C)=O.CCP(CC)CC.[Au+] [Auranofin]
Fibrin % inhibition [1, 24]: 106% | LPS % inhibition [2, 25]: 106% | Quadrant (FIG. 5b) [3, 8]: Q2 | LPS % cell toxicity (primary rat microglia [4]; [18]): 98% | Fibrin % cell toxicity (primary rat microglia [5]; [19]): 94%

Nc1nnc(-c2cccc(Cl)c2Cl)c(N)n1 [Lamotrigine]
inhibition at 10 µM [1, 6]: -12% | inhibition at 10 µM [2, 7]: 12% | Quadrant (FIG. 5b) [3, 8]: Q4 | LPS % cell toxicity (primary rat microglia [4]; [9]): 0% | Fibrin % cell toxicity (primary rat microglia [5]; [10]): 1%

CN(C)c1cc(NC(=O)CNC(C)(C)C)c(O)c2c1C[C@H]1C[C@H]3[C@H](N(C)C)C(O)=C(C(N)=O)C(=O)[C@@]3(O)C(O)=C1C2=O [Tigecycline]
inhibition at 10 µM [1, 11]: 7% | inhibition at 10 µM [2, 12]: 13% | Quadrant (FIG. 5b) [3, 13]: Q4 | LPS % cell toxicity (primary rat microglia [4]; [14]): 0% | Fibrin % cell toxicity (primary rat microglia [5]; [15]): 0%

CC(=O)Nc1ncc([N+](=O)[O-])s1 [Nithiamide]
inhibition at 10 µM [1, 16]: 3% | inhibition at 10 µM [2, 17]: 21% | Quadrant (FIG. 5b) [3, 8]: Q4 | LPS % cell toxicity (primary rat microglia [4]; [18]): 1% | Fibrin % cell toxicity (primary rat microglia [5]; [19]): 1%

Nc1nc(O)c2ncn(COC(CO)CO)c2n1 [Ganciclovir]
inhibition at 10 µM [1, 6]: -2% | inhibition at 10 µM [2, 7]: 13% | Quadrant (FIG. 5b) [3, 8]: Q4 | LPS % cell toxicity (primary rat microglia [4]; [9]): 0% | Fibrin % cell toxicity (primary rat microglia [5]; [10]): 0%

NCc1ccc(S(N)(=O)=O)cc1 [Mafenide]
inhibition at 10 µM [1, 16]: 10% | inhibition at 10 µM [2, 17]: -3% | Quadrant (FIG. 5b) [3, 8]: Q4 | LPS % cell toxicity (primary rat microglia [4]; [18]): 0% | Fibrin % cell toxicity (primary rat microglia [5]; [19]): 1%

CN1CCc2c(c3ccccc3n2Cc2ccccc2)C1.CN1CCc2c(c3ccccc3n2Cc2ccccc2)C1.O=S(=O)(O)c1cccc2c(S(=O)(=O)O)cccc12 [Mebhydrolin Naphthalenesulfonate]
Fibrin % inhibition [1, 24]: 4% | LPS % inhibition [2, 25]: 17% | Quadrant (FIG. 5b) [3, 8]: Q4 | LPS % cell toxicity (primary rat microglia [4]; [18]): 0% | Fibrin % cell toxicity (primary rat microglia [5]; [19]): 1%

NS(=O)(=O)c1cc2c(cc1Cl)NC(C(Cl)Cl)NS2(=O)=O (stereo not shown) [Trichlormethiazide]
inhibition at 10 µM [1, 11]: 17% | inhibition at 10 µM [2, 12]: 13% | Quadrant (FIG. 5b) [3, 13]: Q4 | LPS % cell toxicity (primary rat microglia [4]; [14]): 0% | Fibrin % cell toxicity (primary rat microglia [5]; [15]): 1%

CC[C@]12CCCN3CCc4c(n(c5ccccc45)[C@@](O)(C(=O)OC)C1)[C@@H]32 [Vincamine]
inhibition at 10 µM [1, 11]: 1% | inhibition at 10 µM [2, 12]: 20% | Quadrant (FIG. 5b) [3, 13]: Q4 | LPS % cell toxicity (primary rat microglia [4]; [14]): 0% | Fibrin % cell toxicity (primary rat microglia [5]; [15]): 0%

CC[C@@H](C(N)=O)N1CCCC1=O [Levetiracetam]
inhibition at 10 µM [1, 6]: -24% | inhibition at 10 µM [2, 7]: 7% | Quadrant (FIG. 5b) [3, 8]: Q4 | LPS % cell toxicity (primary rat microglia [4]; [9]): 0% | Fibrin % cell toxicity (primary rat microglia [5]; [10]): 1%

COC(=O)[C@@H]1[C@H]2C[C@H]3c4[nH]c5ccccc5c4CCN3C[C@@H]2CC[C@@H]1O [Yohimbine Hydrochloride]
Fibrin % inhibition ([1]; primary microglia HTS, 10 μM, fibrin-stimulated, cell size >800 μm^2 as marker of activation): −8% | LPS % inhibition ([2]; primary microglia HTS, 10 μM, LPS-stimulated, cell size >800 μm^2 as marker of activation): 19% | Quadrant (FIG. 5b) [3, 13]: Q4 | LPS % cell toxicity (primary rat microglia [4]; [14]): 1% | Fibrin % cell toxicity (primary rat microglia [5]; [15]): 1%

Cc1cc(C2CCCCC2)n(O)c(=O)c1 [Ciclopirox]
inhibition at 10 µM [1, 20]: -1% | inhibition at 10 µM [2, 21]: 40% | Quadrant (FIG. 5b) ([3]; primary HTS, 10 μM): Q4 | LPS % cell toxicity (primary rat microglia [4]; [22]): 1% | Fibrin % cell toxicity (primary rat microglia [5]; [23]): 1%

CCNC(=O)/C=C/c1cccc(Br)c1 [Cinromide]
inhibition at 10 µM [1, 20]: -10% | inhibition at 10 µM [2, 21]: 13% | Quadrant (FIG. 5b) ([3]; primary HTS, 10 μM): Q4 | LPS % cell toxicity (primary rat microglia [4]; [22]): 0% | Fibrin % cell toxicity (primary rat microglia [5]; [23]): 1%

Cc1ccc(C)c(OCCCC(C)(C)C(=O)O)c1 [Gemfibrozil]
inhibition at 10 µM [1, 6]: -47% | inhibition at 10 µM [2, 7]: 10% | Quadrant (FIG. 5b) [3, 8]: Q4 | LPS % cell toxicity (primary rat microglia [4]; [9]): 0% | Fibrin % cell toxicity (primary rat microglia [5]; [10]): 0%

Nc1nc(/C(=C/CC(=O)O)C(=O)N[C@@H]2C(=O)N3C(C(=O)O)=CCS[C@H]23)cs1 [Ceftibuten]
inhibition at 10 µM [1, 20]: -7% | inhibition at 10 µM [2, 21]: 12% | Quadrant (FIG. 5b) ([3]; primary HTS, 10 μM): Q4 | LPS % cell toxicity (primary rat microglia [4]; [22]): 0% | Fibrin % cell toxicity (primary rat microglia [5]; [23]): 1%

CC1(C)O[C@@H]2C[C@H]3[C@@H]4CCC5=CC(=O)CC[C@]5(C)[C@@]4(F)[C@@H](O)C[C@]3(C)[C@]2(C(=O)CCl)O1 [Halcinonide]
inhibition at 10 µM [1, 16]: 103% | inhibition at 10 µM [2, 17]: 95% | Quadrant (FIG. 5b) [3, 8]: Q2 | LPS % cell toxicity (primary rat microglia [4]; [18]): 2% | Fibrin % cell toxicity (primary rat microglia [5]; [19]): 8%
